Reference: patent publication US20120245199A1, “[4 [4-(AMINOMETHYL-2-FLUORO-PHENYL)-PIPERIDIN-1-YL]-(1H-PYRROLO-PYRIDIN-YL)-METHANONES AND SYNTHESIS THEREOF” (SANOFI, priority 2009, published 2012)
Values joined by “and” are separate entries in the source; they are usually repeats but may differ in a detail not shown here. Equal entries are not always repeated. Structures can show the parent of a compound that is named as a salt.

Key:
[1] = target: T1, recombinant human beta tryptase (Homo sapiens, UniProt Q15661); assay: beta-Tryptase inhibition, chromogenic enzyme assay (S2366 substrate); assay type: biochemical; settings: Ki calculated from IC50: Ki=IC50/(1+[Substrate]/Km), 0.5 mM S2366, room temperature
T1 construct: host or cells: yeast cells
Text: Inhibition of this catalytic activity may be measured by the in vitro enzyme assay and the cellular assay.
Tryptase inhibition activity is confirmed using either isolated human lung tryptase or recombinant human beta tryptase expressed in yeast cells. Essentially equivalent results are obtained using isolated native enzyme or the expressed enzyme. The assay procedure employs a 96 well microplate (Costar 3590) using L-pyroglutamyl-L-prolyl-L-arginine-para-nitroanilide (S2366: Quadratech) as substrate (essentially as described by McEuen et. al. Biochem Pharm, 1996, 52, pages 331-340). Assays are performed at room temperature using 0.5 mM substrate (2×Km) and the microplate is read on a microplate reader (Beckman Biomek Plate reader) at 405 nm wavelength.
S2366 (Stock solutions of 2.5 mM).
Purified recombinant beta Tryptase Stocks of 310 μg/mL.
• Add 60 μL of diluted substrate (final concentration of 500 μM in assay buffer) to each well • Add compound in duplicates, final concentration of 20 μM, volume 20 μL • Add enzyme at a final concentration of 50 ng/mL in a volume of 20 μL • Total volume for each well is 100 μL • Agitate briefly to mix and incubate at room temp in the dark for 30 minutes • Read absorbencies at […] Each plate has the following controls: • Totals: 60 μL of substrate, 20 μL of buffer (with 0.2% final concentration of DMSO), 20 μL of enzyme • Non-specific: 60 μL of substrate, 40 μL of buffer (with 0.2% DMSO) • Totals: 60 μL of substrate, 20 μL of buffer (No DMSO), 20 μL of enzyme • Non-specific: 60 μL of substrate, 40 μL of buffer (No DMSO)
The protocol is essentially the same as above except that the compound is added in duplicates at the following final concentrations: 0.01, 0.03, 0.1, 0.3, 1, 3, 10 μM (All dilutions carried out manually). For every assay, whether single point or IC50 determination, a standard compound is used to derive IC50 for comparison. From the IC50 value, the Ki can be calculated using the following formula: Ki=IC50/(1+[Substrate]/Km).

T1 sequence (Q15661 31-275): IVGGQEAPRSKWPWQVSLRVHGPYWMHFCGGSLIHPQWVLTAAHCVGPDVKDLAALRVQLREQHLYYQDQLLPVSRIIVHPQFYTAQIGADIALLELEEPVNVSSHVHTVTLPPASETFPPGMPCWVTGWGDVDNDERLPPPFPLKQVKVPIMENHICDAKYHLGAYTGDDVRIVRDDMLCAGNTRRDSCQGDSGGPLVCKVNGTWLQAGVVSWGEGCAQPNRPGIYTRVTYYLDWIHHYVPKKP

Ki [1]	melting point	Structure (SMILES)
99 nM	–	COCCn1cc(C(=O)N2CCC(c3cccc(CN)c3)CC2)c2ccncc21 [Example 8, [4-(3-Aminomethyl-phenyl)-piperidin-1-yl]-[1-(2-methoxy-ethyl)-1H-pyrrolo[2,3-c]pyridin-3-yl]-methanone dihydrochloride]
166 nM	–	COCCOc1nccc2c(C(=O)N3CCC(c4cc(CN)ccc4F)CC3)cn(CCOC)c12 [Example 11, [4-(5-Aminomethyl-2-fluoro-phenyl)-piperidin-1-yl]-[7-(2-methoxy-ethoxy)-1-(2-methoxy-ethyl)-1H-pyrrolo[2,3-c]pyridin-3-yl]-methanone dihydrochloride]
203 nM	–	NCc1ccc(F)c(C2CCN(C(=O)c3c[nH]c4ncccc34)CC2)c1 [Example 19, [4-(5-Aminomethyl-2-fluoro-phenyl)-piperidin-1-yl]-(1H-pyrrolo[2,3-b]pyridin-3-yl)-methanone dihydrochloride]
–	163 to 167 °C	COCCn1cc(C(=O)N2CCC(c3cc(CN)ccc3F)CC2)c2ccnc(Cl)c21 (as salt: hydrochloride) [Example 13, [4-(5-Aminomethyl-2-fluoro-phenyl)-piperidin-1-yl]-[7-chloro-1-(2-methoxy-ethyl)-1H-pyrrolo[2,3-c]pyridin-3-yl]-methanone dihydrochloride]
9.9 nM	–	COCCn1cc(C(=O)N2CCC(c3cc(CN)ccc3F)CC2)c2nccc(OC)c21 [Example 15, [4-(5-Aminomethyl-2-fluoro-phenyl)-piperidin-1-yl]-[7-methoxy-1-(2-methoxy-ethyl)-1H-pyrrolo[3,2-b]pyridin-3-yl]-methanone dihydrochloride]
290 nM	–	NCc1ccc(F)c(C2CCN(C(=O)c3cn(CCN4CCCCC4)c4cccnc34)CC2)c1 [Example 17, [4-(5-Aminomethyl-2-fluoro-phenyl)-piperidin-1-yl]-[1-(2-piperidin-1-yl-ethyl)-1H-pyrrolo[3,2-b]pyridin-3-yl]-methanone trihydrochloride]
180 nM	–	COCCn1cc(C(=O)N2CCC(c3cc(CN)ccc3F)CC2)c2cnccc21 [Example 10, [4-(5-Aminomethyl-2-fluoro-phenyl)-piperidin-1-yl]-[1-(2-methoxy-ethyl)-1H-pyrrolo[3,2-c]pyridin-3-yl]-methanone dihydrochloride]
221 nM	–	NCc1ccc(F)c(C2CCN(C(=O)c3cc4cccnc4[nH]3)CC2)c1 [Example 1, [4-(5-Aminomethyl-2-fluoro-phenyl)-piperidin-1-yl]-(1H-pyrrolo[2,3-b]pyridin-2-yl)-methanone dihydrochloride]
25 nM	–	COCCn1cc(C(=O)N2CCC(c3cc(CN)ccc3F)CC2)c2ccnc(Cl)c21 [Example 13, [4-(5-Aminomethyl-2-fluoro-phenyl)-piperidin-1-yl]-[7-chloro-1-(2-methoxy-ethyl)-1H-pyrrolo[2,3-c]pyridin-3-yl]-methanone dihydrochloride]
25 nM	–	COCCn1cc(C(=O)N2CCC(c3cc(CN)ccc3F)CC2)c2ccnc(C)c21 [Example 14, [4-(5-Aminomethyl-2-fluoro-phenyl)-piperidin-1-yl]-[1-(2-methoxy-ethyl)-7-methyl-1H-pyrrolo[2,3-c]pyridin-3-yl]-methanone]
915 nM	–	COCCn1c(C(=O)N2CCC(c3cccc(CN)c3)CC2)cc2cccnc21 [Example 3, [4-(3-Aminomethyl-phenyl)-piperidin-1-yl]-[1-(2-methoxy-ethyl)-1H-pyrrolo[2,3-b]pyridin-2-yl]-methanone dihydrohydrochloride, dihydrochloride]
220 nM	–	NCc1ccc(F)c(C2CCN(C(=O)c3c[nH]c4cnccc34)CC2)c1 [Example 5, [4-(5-Aminomethyl-2-fluoro-phenyl)-piperidin-1-yl]-(1H-pyrrolo[2,3-c]pyridin-3-yl)-methanone dihydrochloride]
538 nM	–	COCCn1c(C(=O)N2CCC(c3cc(CN)ccc3F)CC2)cc2cccnc21 [Example 2, [4-(5-Aminomethyl-2-fluoro-phenyl)-piperidin-1-yl]-[1-(2-methoxy-ethyl)-1H-pyrrolo[2,3-b]pyridin-2-yl]-methanone dihydrochloride]
92 nM	–	COCCn1cc(C(=O)N2CCC(c3cc(CN)ccc3F)CC2)c2cccnc21 [Example 20, [4-(5-Aminomethyl-2-fluoro-phenyl)-piperidin-1-yl]-[1-(2-methoxy-ethyl)-1H-pyrrolo[2,3-b]pyridin-3-yl]-methanone dihydrochloride]
2.9 nM	–	NCc1ccc(F)c(C2CCN(C(=O)c3cn(CCc4ccccc4)c4cccnc34)CC2)c1 [Example 16, [4-(5-Aminomethyl-2-fluoro-phenyl)-piperidin-1-yl]-(1-phenethyl-1H-pyrrolo[3,2-b]pyridin-3-yl)-methanone dihydrochloride]
277 nM	–	NCc1ccc(F)c(C2CCN(C(=O)c3cn(CCN4CCCC4)c4cccnc34)CC2)c1 [Example 18, [4-(5-Aminomethyl-2-fluoro-phenyl)-piperidin-1-yl]-[1-(2-pyrrolidin-1-yl-ethyl)-1H-pyrrolo[3,2-b]pyridin-3-yl]-methanone trihydrochloride]
1100 nM	–	COCCn1c(C(=O)N2CCC(c3cc(CN)ccc3F)CC2)cc2cnccc21 [Example 4, [4-(5-Aminomethyl-2-fluoro-phenyl)-piperidin-1-yl]-[1-(2-methoxy-ethyl)-1H-pyrrolo[3,2-c]pyridin-2-yl]-methanone hydrochloride]
23 nM and 13 nM	–	COCCn1cc(C(=O)N2CCC(c3cc(CN)ccc3F)CC2)c2nccc(C)c21 [Example 12, [4-(5-Aminomethyl-2-fluoro-phenyl)-piperidin-1-yl]-[1-(2-methoxy-ethyl)-7-methyl-1H-pyrrolo[3,2-b]pyridin-3-yl]-methanone dihydrochloride]
35 nM	–	COCCn1cc(C(=O)N2CCC(c3cc(CN)ccc3F)CC2)c2ccncc21 [Example 9, [4-(5-Aminomethyl-2-fluoro-phenyl)-piperidin-1-yl]-[1-(2-methoxy-ethyl)-1H-pyrrolo[2,3-c]pyridin-3-yl]-methanone dihydrochloride]
